# Experimental data as given in patent publication US20210309978A1, “POLYNUCLEOTIDE SEQUENCE ENCODING A LOCAL SOURCED NOVEL ESTERASE” (ISTANBUL TEKNIK UNIVERSITESI, priority 2018, published 2021).
# Several values for one entry are separate records, joined by “and”; a condition that tells them apart may be missing. Equal entries are not always repeated.
# Tests used:
# esterase enzyme [1] = experiment: Effect of metals on enzyme activity; type: biochemical, microflora of Ac1göl (Aci Lake); conditions: the enzyme of the invention in presence of metal ion
# [2] = system: thermophilic and halophilic esterase from Janibacter sp. R02; conditions: literature enzyme in presence of metal ion; cited from earlier work
# [3] = system: new true lipase isolated through metagenomic approach; conditions: literature enzyme in presence of metal ion; cited from earlier work
# [4] = system: Salt-Tolerant Esterase from the Deep-Sea Sediment of the South China Sea; conditions: literature enzyme in presence of metal ion; cited from earlier work
# esterase enzyme [5] = experiment: Effect of solutions (solvents) on enzyme activity; type: biochemical, microflora of Ac1göl (Aci Lake); conditions: 10% solution added into the reaction
# Procedure: (§1) 6. […] The final concentration of the enzyme and substrate have been 1 μM and 1 mM respectively and absorbance measurements have been taken at 410 nm. The activity has been calculated by means of the below formula and one unit of activity has been defined as the enzyme amount which produces 1 μmol product in 1 minute.
# (§2) Activity (U/L)=[(ΔAbs/t)/(ε*d)]*106*Vt/Vs • ΔAbs=Absorbance change; t=time (minute); ε=extinction coefficient (M−1 cm−1); d=light path (cm); Vt=total reaction volume; Vs=enzyme volume used in reaction.
# (§3) Additionally, the effect of different solutions (hexane, chloroform, acetone, dimethyl formamide (DMF), dimethyl sulphoxide (DMSO), 2-propanol, butanol, 1-propanol, ethanol, methanol and glycerol) on the activity and stability of the enzyme have been measured. In the activity tests, 10% solution has been added into the reaction and in the stability tests the enzyme has been incubated for 24 hours in a buffer solution containing 15% and 30% solution.
# esterase enzyme [6] = experiment: Effect of solutions (solvents) on enzyme stability (24 hours incubation); type: biochemical, microflora of Ac1göl (Aci Lake); conditions: for Effect of solutions on stability, Activity (%) 15% Solution: enzyme incubated 24 hours in buffer containing 15% solution; for Effect of solutions on stability, Activity (%) 30% Solution: enzyme incubated 24 hours in buffer containing 30% solution
# Procedure: as §1, §2, §3
# [7] = system: heavy metal-resistant, thermophilic esterase from a Red Sea Brine Pool; conditions: literature enzyme in presence of metal ion; cited from earlier work
# esterase enzyme [8] = experiment: Effect of sodium chloride on enzyme activity; type: biochemical, microflora of Ac1göl (Aci Lake)
# Procedure: (§4) 6. Standard activity test: Activity has been measured based on the pNP measurement that is obtained by the hydrolysis of the paranitfrophenol (pNP) esters by the enzyme (Winkler and Stuckmann, 1979). The final concentration of the enzyme and substrate have been 1 μM and 1 mM respectively and absorbance measurements have been taken at 410 nm. The activity has been calculated by means of the below formula and one unit of activity has been defined as the enzyme amount which produces 1 μmol product in 1 minute.
# as §2
# (§5) The effect of sodium chloride on the activity (5%, 10%, 15%, 20% and 25% NaCl) and the stability (10%, 15%, 20% and 25% NaCl) of the enzyme has been determined similarly. The enzyme has been incubated in a buffer solution comprising sodium chloride at the defined amounts for 24 hours during stability tests.
# esterase enzyme [9] = experiment: Effect of sodium chloride on enzyme stability (24 hours incubation); type: biochemical, microflora of Ac1göl (Aci Lake)
# Procedure: as §4, §2, §5
# [10] = type: biochemical, microflora of Ac1göl (Aci Lake)
# Procedure: as §4, §2
# (§6) The reaction has been carried out under different temperatures (5° C.-70° C.) in order to determine the optimum temperature in which the enzyme works efficiently, and the activity has been measured. In order to determine the thermal stability of the enzyme, the enzyme has been incubated for 20 minutes between 25° C.-80° C. temperature and the remaining activity has been measured according to standard tests.
# [11] = Effect of pH on enzyme activity; type: biochemical, microflora of Ac1göl (Aci Lake)
# Procedure: as §4, §2
# (§7) 8. Measuring the activity and stability of the enzyme under different conditions: Reactions have been carried out in buffer solutions (50 mM citrate/phosphate buffer, pH 6; 50 mM Tris-HCl buffer, pH 7, 8 and 8.5; 50 mM glycine-NaOH buffer, pH 9, 9.5 and 10) having different pH values in order to determine the optimum pH value in which the enzyme works. Moreover, in order to measure the pH stability of the enzyme, the enzyme has been incubated for 24 hours before reaction in these buffer solutions and the activity value remaining at the end of the incubation has been calculated.
# [12] = type: biochemical, microflora of Ac1göl (Aci Lake); remark: listed apart in the source
# Procedure: as §4, §2, §7
# [13] = Effect of temperature on enzyme activity (standard pNP ester activity test); type: biochemical, microflora of Ac1göl (Aci Lake)
# Procedure: as §4, §2, §6
molecule,measurement,setting,value
[K+] [K^+],"Metal tolerance, This study",esterase enzyme [1],128
same,"Metal tolerance, Castilla et al, 2017",[2],90
same,"Metal tolerance, Glogauer et al, 2011",[3],122
same,"Metal tolerance, Zhang et al, 2017",[4],108
"CO [Methanol, methanol]","Effect of solutions on activity, Activity (%)",esterase enzyme [5],81.1 ± 1.1%
same,"Effect of solutions on activity, Activity (%)",esterase enzyme [5]; listed as methanol,81%
same,"Effect of solutions on stability, Activity (%) 15% Solution",esterase enzyme [6],108.5 ± 0.2%
same,"Effect of solutions on stability, Activity (%) 30% Solution",esterase enzyme [6],99.4 ± 6.6%
[Mn+2] [Mn^2+],"Metal tolerance, Mohamed et al, 2013",[7],112
same,"Metal tolerance, This study",esterase enzyme [1],130
same,"Metal tolerance, Castilla et al, 2017",[2],75
same,"Metal tolerance, Glogauer et al, 2011",[3],47
same,"Metal tolerance, Zhang et al, 2017",[4],76
[Ni+2] [Ni^2+],"Metal tolerance, This study",esterase enzyme [1],110
same,"Metal tolerance, Castilla et al, 2017",[2],75
same,"Metal tolerance, Glogauer et al, 2011",[3],66
same,"Metal tolerance, Zhang et al, 2017",[4],68
[Zn+2] [Zn^2+],"Metal tolerance, Mohamed et al, 2013",[7],85
same,"Metal tolerance, This study",esterase enzyme [1],6
same,"Metal tolerance, Castilla et al, 2017",[2],160
same,"Metal tolerance, Glogauer et al, 2011",[3],45
same,"Metal tolerance, Zhang et al, 2017",[4],25
[Mg+2] [mg^2+],"Metal tolerance, Mohamed et al, 2013",[7],91
same,"Metal tolerance, This study",esterase enzyme [1],130
same,"Metal tolerance, Castilla et al, 2017",[2],160
same,"Metal tolerance, Glogauer et al, 2011",[3],65
same,"Metal tolerance, Zhang et al, 2017",[4],97
[Cl-].[Na+] [sodium chloride],"The effect of sodium chloride on activity, Activity (%)",esterase enzyme [8]; Concentration 1 %,100 ± 1.9%
same,"The effect of sodium chloride on activity, Activity (%)",esterase enzyme [8]; Concentration 5 %,90.2 ± 2.1%
same,"The effect of sodium chloride on activity, Activity (%)",esterase enzyme [8]; Concentration 10 %,79.2 ± 5%
same,"The effect of sodium chloride on activity, Activity (%)",esterase enzyme [8]; Concentration 15 %,52 ± 5.3%
same,"The effect of sodium chloride on activity, Activity (%)",esterase enzyme [8]; Concentration 20 %,39.2 ± 6.3%
same,"The effect of sodium chloride on stability, Activity (%)",esterase enzyme [9]; Concentration 10.0 %,100 ± 4.8%
same,"The effect of sodium chloride on stability, Activity (%)",esterase enzyme [9]; Concentration 15.0 %,99 ± 1.8%
same,"The effect of sodium chloride on stability, Activity (%)",esterase enzyme [9]; Concentration 20.0 %,102.7 ± 1%
same,"The effect of sodium chloride on stability, Activity (%)",esterase enzyme [9]; Concentration 25.0 %,101.4 ± 4.5%
butanol,"Effect of solutions on activity, Activity (%)",esterase enzyme [5],3.3 ± 3.3%
same,"Effect of solutions on stability, Activity (%) 15% Solution",esterase enzyme [6],97.1 ± 3.3%
same,"Effect of solutions on stability, Activity (%) 30% Solution",esterase enzyme [6],104.9 ± 2.4%
"enzyme: novel esterase (SEQ ID NO: 2, 260 amino acids) obtained by metagenomic method from the microflora of Ac1göl (protein, Metagenomic Sequence) MTVDLNHLDTGGEGIPLVVIHGLLGSADNWRSHVKQWQQQCRVVAVDLRNHGRSPHADGMSYAAMAADLEALLDRLGIERAHLLGHSMGGKVAISVARLHPQRVASLIVADIAPQAYGHDHDAVFAGLRRVEQGQPGNRREADALLAEHVEERAVRLFLATNLERDDDGILRLRIGLDEIEGDYDAIMQAPAGEGSYDGPVLVLRGDRSPYVTDAMLPRLHQVLPQAQLVTLENAGHWLHAEQPEAFQAAVNDFLASLEA",temperature up to which the enzyme maintained the stability,[10],up to 55 °C
same,pH value at which the enzyme worked best,[11],9 pH
same,"The effect of pH on activity, Activity (%)",[11]; pH 6,10.3 ± 4.1%
same,"The effect of pH on activity, Activity (%)",[11]; pH 7,68.8 ± 8.2%
same,"The effect of pH on activity, Activity (%)",[11]; pH 8,77.1 ± 6.8%
same,"The effect of pH on activity, Activity (%)",[11]; pH 8.5,84 ± 5.2%
same,"The effect of pH on activity, Activity (%)",[11]; pH 9,100 ± 1.3%
same,"The effect of pH on activity, Activity (%)",[11]; pH 9.5,84.9 ± 1.5%
same,"The effect of pH on activity, Activity (%)",[11]; pH 10,20 ± 8.1%
same,pH up to which the enzyme maintained its stability,[12],≤ 10 pH
same,temperature of best activity,[13],30 °C
same,"Effect of temperature on activity, Activity (%)",[13]; reaction at 5 ° C.,47% and 46.6 ± 6.1%
same,"Effect of temperature on activity, Activity (%)",[13]; reaction at 10 ° C.,53.8 ± 7.4%
same,"Effect of temperature on activity, Activity (%)",[13]; reaction at 15 ° C.,63% and 63.1 ± 5.1%
same,"Effect of temperature on activity, Activity (%)",[13]; reaction at 20 ° C.,76.9 ± 4.4%
same,"Effect of temperature on activity, Activity (%)",[13]; reaction at 25 ° C.,93.1 ± 6.3%
same,"Effect of temperature on activity, Activity (%)",[13]; reaction at 30 ° C.,100 ± 4.8%
same,"Effect of temperature on activity, Activity (%)",[13]; reaction at 35 ° C.,94.4 ± 1.5%
same,"Effect of temperature on activity, Activity (%)",[13]; reaction at 40 ° C.,82.4 ± 2.8%
same,"Effect of temperature on activity, Activity (%)",[13]; reaction at 45 ° C.,22.5 ± 0.8%
same,"Effect of temperature on activity, Activity (%)",[13]; reaction at 50 ° C.,17.7 ± 0.3%
same,"Effect of temperature on activity, Activity (%)",[13]; reaction at 55 ° C.,14.4 ± 4.5%
same,"Effect of temperature on activity, Activity (%)",[13]; reaction at 60 ° C.,12.9 ± 2.9%
same,"Effect of temperature on activity, Activity (%)",[13]; reaction at 65 ° C.,11.1 ± 4.2%
same,"Effect of temperature on activity, Activity (%)",[13]; reaction at 70 ° C.,8.2 ± 0.8%
